Assay results reported in patent publication US20250145715A1, “B7-H3 TARGETING FUSION PROTEINS AND METHODS OF USE THEREOF” (GT Biopharma, Inc., priority 2021, published 2025).

Tests used:
[1] = test system: NK cells (CD56+CD3−); assay: NK cell proliferation in PBMCs, CellTrace Violet dilution; assay type: cell-based, human
Description: FIGS. 2A-2H illustrates that cam1615B7-H3 TriKE induces potent, and specific, natural killer (NK) cell proliferation. Peripheral blood mononuclear cells (PBMCs) were CellTrace Violet labeled and incubated for seven days at 5 nM equimolar concentrations of rhIL-15 or cam1615B7-H3 TriKE. On day 7, the cells were harvested and stained for flow cytometric evaluation. […] FIG. 2B is a graph illustrating pooled data showing the overall proportion of NK cells that proliferated. FIG. 2C is a graph illustrating pooled data showing the proportion of NK cells that highly proliferated (measured as proliferation beyond three divisions). FIG. 2D is a graph illustrating pooled data showing NK cell counts in the cultures (N=9). FIG. 2E is a representative histogram showing T cell (CD56− CD3+) proliferation. FIG. 2F is a graph illustrating pooled data showing the overall proportion of T cells proliferated. FIG. 2G is a graph illustrating pooled data showing the proportion of T cells highly proliferated. […]
The wild-type IL-15 moiety in the cam1615B7-H3 TriKE was designed to induce targeted delivery of a proliferative signal to NK cells. […] At the end of the seven days, cells were harvested and proliferation was evaluated by gating on CD56+CD3− cells. […] Since IL-15 acts on both NK cells and T cells, specificity was evaluated next by gating on T cells (CD56-CD3+). […]

[2] = test system: NK cells (CD45+CD56+CD3−) in PBMCs, with or without OVCAR8; assay: Mass cytometry (CyTOF) of TriKE activated NK cells; assay type: cell-based, human
Description: FIG. 31 illustrates high dimensional analysis of cam1615B7-H3 activated NK cells. Concatenated analysis of three donors PBMCs incubated alone, with 30 nM cam1615B7-H3 TriKE, with OVCAR8 tumor (2:1 E:T), or with 30 nM cam1615B7-H3 TriKE and OVCAR8 tumor. Data was visualized in viSNE (Cytobank) and gated on CD45+CD56+CD3-cells.
For mass cytometry (CyTOF) studies, PBMCs were incubated alone or with OVCAR8s at a 2:1 ratio+/−cam1615B7-H3 (30 nM) for 24 h. After harvesting samples, cells were counted, and viability was measured using trypan blue exclusion. Two hundred thousand cells from each donor were aliquoted into 5-mL polystyrene U-bottom tubes for barcoding and CyTOF staining. Cells were stained with Cisplatin (Fluidigm Product #201064, San Francisco, CA, USA), followed by barcoding using the Cell-ID 20-Plex Pd Barcoding Kit (Fluidigm Product #201060). After barcoding, all cells were combined into a single 5-mL polystyrene U-bottom tube and incubated in the surface marker antibody cocktail for 30 min at 4° C.
Following surface staining, cells were then fixed using 2% PFA. For intracellular staining, cells were permeabilized by incubation with Triton X 0.1% for 5 min at room temperature, followed by incubation with intracellular antibody cocktail for 30 min at 4° C. Stained cells were then incubated overnight with Cell-ID Intercalator (Fluidigm Product #201192A). The following morning cells were washed and run on the CyTOF 2 instrument. Wash steps were completed using either Maxpar PBS (Fluidigm Product #201058), Maxpar Cell Staining Buffer (Fluidigm Product #201068), or Millipure Water at 1600 RPM for 4 min. For custom tagged antibodies: Conjugation of heavy metals to a specific ScFv is conducted using the Maxpar antibody labeling kit (Fluidigm). The protocol involves partial antibody reduction using 0.5 M TCEP: Pierce Bond-Breaker TCEP Solution (Thermo Scientific Product #77720, Waltham, MA, USA), as well as comprehensive buffer exchange using centrifugal filter units of both 3 kDa and 50 kDa size (Millipore Product #UFC500396, UFC505096, Burlington, MA, USA). After conjugation of the antibody, yield is measured, and the final reagent is stored in antibody stabilizer (Boca Scientific Product #131 000, Westwood, MA, USA). The reagent is then titrated and verified against known flow cytometry antibodies. Data from the three donors was concatenated. FCS file concatenation was completed with a combination of Cytobank and Flowjo. All Visne analyses were carried out in Cytobank.
As illustrated in FIG. 31 high dimensional analysis of cam1615B7-H3 TriKE activated cells was performed. To broadly evaluate the phenotypic and functional effects of TriKE activation on NK cells, a custom, 42 parameter, CyTOF (mass cytometry) NK cell targeted panel was used. PBMCs were left untreated, incubated with cam1615B7-H3 TriKE for 24 h, incubated with tumor (OVCAR8s) for 24 h, or incubated with tumor and cam1615B7-H3 TriKE for 24 h. Cells were then stained, fixed, and run on a CyTOF2. Samples (three biologic replicates per condition) were concatenated, and data was visualized with viSNE, which uses all expression information to display localization of individual cells in a 2D plot in order to explore the multidimensional data (FIG. 31). The data indicated no changes in distributions of CD56^brights versus CD56^dims. Activation markers CD25 and CD69 were both induced with TriKE treatment, as was the chemokine receptor CXCR3. Granzyme B, involved in cytolytic activity of NK cells, was primed on effectors+TriKE, but in the presence of tumor targets (effectors+tumor+TriKE) these Granzyme B high cells disappeared, likely as a cause of ADCC driven specific degranulation. […] This also seemed to be the case with NKG2D, but the natural cytotoxicity receptors (NCR: NKp30, NKp44, and NKp46) were less affected.

[3] = effectors exposed to tumor in the presence of TriKE

Substance: cam1615B7-H3: second-generation TriKE: humanized camelid anti-CD16 VHH, human wild-type IL-15, anti-B7-H3 mAb 376.96 scFv; SEQ ID NO:1
- overall NK cell proliferation ([1]; PBMCs, 7 days, 5 nM equimolar): overall increase in proliferation that was similar in amplitude to that induced by rhIL-15
- NK cell proliferation (3 or more rounds of division) vs IL-15 alone ([1]; compared to IL-15 alone): more potent at inducing NK cell proliferation
- distributions of CD56brights versus CD56dims ([2]; 30 nM, 24 h): no changes
- CD25 expression ([2]; 30 nM, 24 h, TriKE treatment): induced
- CD69 expression ([2]; 30 nM, 24 h, TriKE treatment): induced
- CXCR3 expression ([2]; 30 nM, 24 h, TriKE treatment): induced
- TIGIT [2, 3]: did not seem as affected
- activating KIR (KIR2DS1 and KIR2DS4) expression [2, 3]: reduced in expression
- inhibitory KIR (KIR2DL1, KIR2DL3 and KIR3DL1) expression [2, 3]: reduced in expression
- natural cytotoxicity receptors (NKp30, NKp44, NKp46) [2, 3]: less affected
- Granzyme B ([2]; effectors+TriKE): primed
- Granzyme B high cells ([2]; effectors+tumor+TriKE): disappeared
